From ChEMBL document CHEMBL5463729, “Data for DCP probe BAY 1753011” (2023)

Experiments:
[1] = molecular target: Tyrosine-protein kinase ABL1 (Homo sapiens) (UniProt P00519); assay: Inhibition of Abl(h) at 10.0 µM in the Eurofins Kinase panel; conditions: Compound concentration 10.0 uM
[2] = molecular target: 5'-AMP-activated protein kinase catalytic subunit alpha-2 (Homo sapiens) (UniProt P54646); assay: Inhibition of AMPKalpha2(h) at 10.0 µM in the Eurofins Kinase panel; conditions: Compound concentration 10.0 uM
[3] = molecular target: Calcium/calmodulin-dependent protein kinase type 1B (Homo sapiens) (UniProt Q6P2M8); assay: Inhibition of CaMKIbeta(h) at 10.0 µM in the Eurofins Kinase panel; conditions: Compound concentration 10.0 uM
[4] = molecular target: Tyrosine-protein kinase JAK2 (Homo sapiens) (UniProt O60674); assay: Inhibition of JAK2(h) at 10.0 µM in the Eurofins Kinase panel; conditions: Compound concentration 10.0 uM
[5] = molecular target: RAC-beta serine/threonine-protein kinase (Homo sapiens) (UniProt P31751); assay: Inhibition of PKBbeta(h) at 10.0 µM in the Eurofins Kinase panel; conditions: Compound concentration 10.0 uM
[6] = molecular target: Serine/threonine-protein kinase Sgk2 (Homo sapiens) (UniProt Q9HBY8); assay: Inhibition of SGK2(h) at 10.0 µM in the Eurofins Kinase panel; conditions: Compound concentration 10.0 uM
[7] = molecular target: Wee1-like protein kinase (Homo sapiens) (UniProt P30291); assay: Inhibition of WEE1(h) at 10.0 µM in the Eurofins Kinase panel; conditions: Compound concentration 10.0 uM
[8] = molecular target: 5-hydroxytryptamine receptor 2A (Homo sapiens) (UniProt P28223); conditions: Compound concentration 10.0 uM
[9] = molecular target: B1 bradykinin receptor (Homo sapiens) (UniProt P46663); conditions: Compound concentration 10.0 uM
[10] = molecular target: Motilin receptor (Homo sapiens) (UniProt O43193); conditions: Compound concentration 10.0 uM
[11] = molecular target: Sodium-dependent noradrenaline transporter (Homo sapiens, UniProt P23975); assay: GPCRScan assay: inhibition of NET; parameters: radioligand conc. used [nm] 1.3 – 5.0, parental cells stable HEK
[12] = molecular target: T1, Alpha-1D adrenergic receptor (Homo sapiens) (UniProt P25100); assay: Inhibition of Adrenergic alpha1D at 10 µM in the Eurofins-Panlabs radioligand binding assay (Eurofins_assay_203400); conditions: Compound concentration 10.0 uM
T1 sequence (whole entry): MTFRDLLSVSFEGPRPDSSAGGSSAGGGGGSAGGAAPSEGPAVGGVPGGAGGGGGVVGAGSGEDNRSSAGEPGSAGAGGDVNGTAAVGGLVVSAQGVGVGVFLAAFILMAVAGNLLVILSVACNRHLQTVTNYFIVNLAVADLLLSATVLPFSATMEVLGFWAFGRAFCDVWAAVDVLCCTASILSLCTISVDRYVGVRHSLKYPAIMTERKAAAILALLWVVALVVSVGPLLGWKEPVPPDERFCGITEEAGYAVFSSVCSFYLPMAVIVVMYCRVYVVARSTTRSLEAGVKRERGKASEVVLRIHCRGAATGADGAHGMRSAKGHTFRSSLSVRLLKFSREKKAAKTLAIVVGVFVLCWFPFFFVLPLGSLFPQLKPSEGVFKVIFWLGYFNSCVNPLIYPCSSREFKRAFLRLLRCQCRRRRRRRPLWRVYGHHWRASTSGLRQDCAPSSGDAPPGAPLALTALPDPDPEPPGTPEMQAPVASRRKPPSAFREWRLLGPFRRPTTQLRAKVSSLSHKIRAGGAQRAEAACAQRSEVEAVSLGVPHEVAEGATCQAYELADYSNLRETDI

Homo sapiens [13] = organism: Homo sapiens; assay: Inhibition of Nicotinic Acetylcholine at compound concentration of 10.0 uM in the Eurofins-Panlabs radioligand binding assay (Eurofins_assay_258590); type: protein-complex assay; conditions: Compound concentration 10.0 uM
[14] = molecular target: Sigma non-opioid intracellular receptor 1 (Homo sapiens) (UniProt Q99720); assay: Inhibition of Sigma 1 at 10 µM in the Eurofins-Panlabs radioligand binding assay (Eurofins_assay_278110); parameters: ligand concentration 8 nM; conditions: Compound concentration 10.0 uM
[15] = molecular target: 3-hydroxy-3-methylglutaryl-coenzyme A reductase (Homo sapiens) (UniProt P04035); assay: Inhibition of HMG-CoA Reductase at compound concentration of 10.0 uM in the Eurofins-Panlabs enzyme assay (Eurofins_assay_124010); parameters: substrate with concentration; conditions: Compound concentration 10.0 uM
Homo sapiens [16] = organism: Homo sapiens; assay: Inhibition of Phosphodiesterase PDE4 at compound concentration of 10.0 uM in the Eurofins-Panlabs enzyme assay (Eurofins_assay_154000); type: protein assay; parameters: substrate with concentration 1.01 uM [3 H]cAMP + cAMP, incubation time 20 min, incubation temperature 25 C; conditions: Compound concentration 10.0 uM
[17] = molecular target: Epidermal growth factor receptor (Homo sapiens) (UniProt P00533); assay: Inhibition of Protein Tyrosine Kinase, EGF Receptor at 10 µM in the Eurofins-Panlabs enzyme assay (Eurofins_assay_170020); parameters: substrate with concentration; conditions: Compound concentration 10.0 uM
[18] = molecular target: C-C chemokine receptor type 4 (Homo sapiens) (UniProt P51679); assay: Inhibition of Chemokine CCR4 at 10 µM in the Eurofins-Panlabs radioligand binding assay (Eurofins_assay_217660); conditions: Compound concentration 10.0 uM
[19] = molecular target: C-X-C chemokine receptor type 2 (Homo sapiens) (UniProt P25025); assay: Inhibition of Chemokine CXCR2 (IL-8RB) at 10 µM in the Eurofins-Panlabs radioligand binding assay (Eurofins_assay_244500); conditions: Compound concentration 10.0 uM
[20] = molecular target: Melanocortin receptor 5 (Homo sapiens) (UniProt P33032); assay: Inhibition of Melanocortin MC5 at 10 µM in the Eurofins-Panlabs radioligand binding assay (Eurofins_assay_251400); parameters: ligand concentration 0.035 nM; conditions: Compound concentration 10.0 uM
[21] = molecular target: 5-hydroxytryptamine receptor 6 (Homo sapiens) (UniProt P50406); assay: Inhibition of Serotonin (5-Hydroxytryptamine) 5-HT6 at 10 µM in the Eurofins-Panlabs radioligand binding assay (Eurofins_assay_272200); conditions: Compound concentration 10.0 uM
[22] = molecular target: Serine/threonine-protein kinase BRSK2 (Homo sapiens) (UniProt Q8IWQ3); assay: Inhibition of BrSK2(h) at 10.0 µM in the Eurofins Kinase panel; conditions: Compound concentration 10.0 uM
[23] = molecular target: Calcium/calmodulin-dependent protein kinase type II subunit alpha (Homo sapiens) (UniProt Q9UQM7); assay: Inhibition of CaMKIIalpha(h) at 10.0 µM in the Eurofins Kinase panel; conditions: Compound concentration 10.0 uM
[24] = molecular target: T2, Alpha-1A adrenergic receptor (Homo sapiens) (UniProt P35348); conditions: Compound concentration 10.0 uM
T2 sequence (whole entry): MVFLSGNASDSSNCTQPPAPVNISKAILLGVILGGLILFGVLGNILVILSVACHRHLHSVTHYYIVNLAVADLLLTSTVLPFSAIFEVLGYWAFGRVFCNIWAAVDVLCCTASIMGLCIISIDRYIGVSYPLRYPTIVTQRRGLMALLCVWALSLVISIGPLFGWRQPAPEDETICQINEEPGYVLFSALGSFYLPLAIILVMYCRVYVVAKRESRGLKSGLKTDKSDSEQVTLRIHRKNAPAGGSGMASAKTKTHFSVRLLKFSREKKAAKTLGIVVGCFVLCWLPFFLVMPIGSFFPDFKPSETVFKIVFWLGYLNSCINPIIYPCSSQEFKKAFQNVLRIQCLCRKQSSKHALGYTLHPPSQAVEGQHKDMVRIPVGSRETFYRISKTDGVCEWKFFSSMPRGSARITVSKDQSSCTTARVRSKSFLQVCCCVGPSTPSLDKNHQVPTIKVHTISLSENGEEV

[25] = molecular target: Cannabinoid receptor 1 (Homo sapiens) (UniProt P21554); conditions: Compound concentration 10.0 uM
Cannabinoid receptor 1 (Homo sapiens), sequence (P21554 whole entry): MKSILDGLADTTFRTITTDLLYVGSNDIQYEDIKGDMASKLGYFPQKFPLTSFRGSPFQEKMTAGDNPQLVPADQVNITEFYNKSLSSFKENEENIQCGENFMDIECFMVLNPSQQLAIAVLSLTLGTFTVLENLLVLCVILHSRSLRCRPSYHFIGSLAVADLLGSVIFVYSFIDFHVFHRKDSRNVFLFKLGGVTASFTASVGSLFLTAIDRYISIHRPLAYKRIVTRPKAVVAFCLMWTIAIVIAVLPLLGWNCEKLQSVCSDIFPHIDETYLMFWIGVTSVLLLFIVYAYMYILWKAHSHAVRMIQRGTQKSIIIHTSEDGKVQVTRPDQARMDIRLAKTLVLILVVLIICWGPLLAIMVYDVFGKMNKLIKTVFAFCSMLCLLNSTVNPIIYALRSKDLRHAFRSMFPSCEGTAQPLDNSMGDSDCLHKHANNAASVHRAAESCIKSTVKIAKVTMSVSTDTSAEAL

Sodium-dependent noradrenaline transporter, sequence (P23975 whole entry): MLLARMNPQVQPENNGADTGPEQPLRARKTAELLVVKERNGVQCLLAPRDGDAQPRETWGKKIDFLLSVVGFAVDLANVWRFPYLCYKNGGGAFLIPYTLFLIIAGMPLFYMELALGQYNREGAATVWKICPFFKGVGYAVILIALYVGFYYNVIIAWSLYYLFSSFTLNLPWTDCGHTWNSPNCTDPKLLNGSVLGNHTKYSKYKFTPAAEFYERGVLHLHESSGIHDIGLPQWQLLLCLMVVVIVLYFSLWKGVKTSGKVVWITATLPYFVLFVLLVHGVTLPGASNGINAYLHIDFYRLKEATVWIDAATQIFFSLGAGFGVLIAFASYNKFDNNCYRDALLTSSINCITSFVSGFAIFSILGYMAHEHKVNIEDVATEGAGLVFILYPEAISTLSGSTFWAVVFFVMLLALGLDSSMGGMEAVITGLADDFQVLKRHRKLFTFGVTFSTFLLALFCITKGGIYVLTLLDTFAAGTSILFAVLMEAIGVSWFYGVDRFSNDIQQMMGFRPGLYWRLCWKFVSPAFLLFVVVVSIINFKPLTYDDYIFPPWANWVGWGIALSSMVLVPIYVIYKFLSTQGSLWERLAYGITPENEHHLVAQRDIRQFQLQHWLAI
C-C chemokine receptor type 4 (Homo sapiens), sequence (P51679 whole entry): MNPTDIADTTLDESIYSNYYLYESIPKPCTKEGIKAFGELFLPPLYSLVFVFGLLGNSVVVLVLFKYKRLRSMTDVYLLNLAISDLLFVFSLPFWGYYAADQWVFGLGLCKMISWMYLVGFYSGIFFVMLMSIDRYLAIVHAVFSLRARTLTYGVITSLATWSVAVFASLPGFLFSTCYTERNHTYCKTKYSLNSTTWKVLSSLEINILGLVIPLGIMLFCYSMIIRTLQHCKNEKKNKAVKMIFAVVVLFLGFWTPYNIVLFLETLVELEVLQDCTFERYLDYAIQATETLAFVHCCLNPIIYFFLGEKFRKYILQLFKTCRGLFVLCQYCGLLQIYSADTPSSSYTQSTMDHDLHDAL
Tyrosine-protein kinase JAK2 (Homo sapiens), sequence (O60674 whole entry): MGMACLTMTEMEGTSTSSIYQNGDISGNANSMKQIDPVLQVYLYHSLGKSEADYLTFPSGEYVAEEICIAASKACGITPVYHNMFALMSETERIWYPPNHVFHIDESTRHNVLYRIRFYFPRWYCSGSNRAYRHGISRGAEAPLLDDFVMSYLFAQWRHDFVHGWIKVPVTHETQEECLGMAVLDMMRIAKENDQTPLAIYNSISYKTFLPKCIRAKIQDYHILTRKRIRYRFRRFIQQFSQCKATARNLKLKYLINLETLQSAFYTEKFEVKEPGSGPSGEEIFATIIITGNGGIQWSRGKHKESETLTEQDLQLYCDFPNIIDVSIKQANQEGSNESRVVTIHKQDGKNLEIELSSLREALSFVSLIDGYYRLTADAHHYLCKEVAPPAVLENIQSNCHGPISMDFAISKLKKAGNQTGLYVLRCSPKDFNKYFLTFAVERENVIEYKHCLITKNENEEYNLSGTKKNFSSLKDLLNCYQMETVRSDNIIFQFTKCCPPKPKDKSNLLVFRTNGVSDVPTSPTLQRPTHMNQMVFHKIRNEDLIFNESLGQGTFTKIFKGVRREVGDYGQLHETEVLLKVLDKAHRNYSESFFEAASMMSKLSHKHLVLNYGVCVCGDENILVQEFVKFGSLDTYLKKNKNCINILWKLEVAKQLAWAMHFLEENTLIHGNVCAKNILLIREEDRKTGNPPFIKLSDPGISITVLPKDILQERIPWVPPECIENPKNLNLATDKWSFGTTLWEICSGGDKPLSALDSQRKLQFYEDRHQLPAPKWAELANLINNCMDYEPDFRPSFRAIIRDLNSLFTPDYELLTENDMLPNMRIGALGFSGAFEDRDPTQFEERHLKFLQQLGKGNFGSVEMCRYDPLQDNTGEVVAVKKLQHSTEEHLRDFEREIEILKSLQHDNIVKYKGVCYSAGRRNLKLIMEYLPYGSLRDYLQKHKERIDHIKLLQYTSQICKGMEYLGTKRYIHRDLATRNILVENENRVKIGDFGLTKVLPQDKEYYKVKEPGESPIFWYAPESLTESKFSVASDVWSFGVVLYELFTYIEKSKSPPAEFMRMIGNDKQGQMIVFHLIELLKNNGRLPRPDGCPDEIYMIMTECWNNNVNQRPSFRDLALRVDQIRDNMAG
Serine/threonine-protein kinase Sgk2 (Homo sapiens), sequence (Q9HBY8 whole entry): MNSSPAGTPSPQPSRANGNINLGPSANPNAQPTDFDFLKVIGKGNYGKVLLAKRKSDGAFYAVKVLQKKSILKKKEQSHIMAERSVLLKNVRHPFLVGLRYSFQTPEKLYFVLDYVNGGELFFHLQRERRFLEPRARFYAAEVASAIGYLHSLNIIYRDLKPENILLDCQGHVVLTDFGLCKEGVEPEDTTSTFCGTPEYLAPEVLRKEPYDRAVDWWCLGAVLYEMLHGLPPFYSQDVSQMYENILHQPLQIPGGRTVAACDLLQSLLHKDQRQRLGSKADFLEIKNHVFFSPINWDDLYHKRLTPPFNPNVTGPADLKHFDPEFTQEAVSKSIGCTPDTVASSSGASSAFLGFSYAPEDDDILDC
Wee1-like protein kinase (Homo sapiens), sequence (P30291 whole entry, looked up): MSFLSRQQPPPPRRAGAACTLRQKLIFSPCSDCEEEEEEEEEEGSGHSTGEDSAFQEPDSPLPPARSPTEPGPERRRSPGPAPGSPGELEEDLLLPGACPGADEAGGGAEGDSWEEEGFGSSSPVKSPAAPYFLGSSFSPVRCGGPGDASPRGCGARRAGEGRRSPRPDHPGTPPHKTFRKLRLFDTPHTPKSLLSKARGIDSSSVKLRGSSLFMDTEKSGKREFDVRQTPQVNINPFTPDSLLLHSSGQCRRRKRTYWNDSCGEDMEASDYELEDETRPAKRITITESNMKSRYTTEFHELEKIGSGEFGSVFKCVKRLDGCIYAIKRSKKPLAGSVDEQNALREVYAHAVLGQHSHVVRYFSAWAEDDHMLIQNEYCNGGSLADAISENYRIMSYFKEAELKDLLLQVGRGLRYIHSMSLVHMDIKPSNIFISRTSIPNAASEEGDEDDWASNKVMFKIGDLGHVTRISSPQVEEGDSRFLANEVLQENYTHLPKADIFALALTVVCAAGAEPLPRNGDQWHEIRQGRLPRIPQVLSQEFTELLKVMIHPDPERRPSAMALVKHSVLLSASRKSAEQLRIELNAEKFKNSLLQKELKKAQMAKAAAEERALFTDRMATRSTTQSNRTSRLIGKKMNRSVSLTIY
Calcium/calmodulin-dependent protein kinase type II subunit alpha (Homo sapiens), sequence (Q9UQM7 whole entry): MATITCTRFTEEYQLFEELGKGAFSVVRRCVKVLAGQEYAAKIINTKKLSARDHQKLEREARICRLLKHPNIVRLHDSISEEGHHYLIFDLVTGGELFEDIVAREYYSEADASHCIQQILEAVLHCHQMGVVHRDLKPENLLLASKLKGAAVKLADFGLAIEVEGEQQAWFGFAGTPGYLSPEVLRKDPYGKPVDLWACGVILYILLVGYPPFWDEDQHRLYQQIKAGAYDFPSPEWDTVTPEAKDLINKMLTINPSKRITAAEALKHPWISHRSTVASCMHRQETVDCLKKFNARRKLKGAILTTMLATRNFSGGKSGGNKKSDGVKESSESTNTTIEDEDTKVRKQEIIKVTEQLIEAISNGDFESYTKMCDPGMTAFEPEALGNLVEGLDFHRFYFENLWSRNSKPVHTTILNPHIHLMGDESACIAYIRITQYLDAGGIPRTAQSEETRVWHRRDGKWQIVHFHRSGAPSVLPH
Melanocortin receptor 5 (Homo sapiens), sequence (P33032 whole entry): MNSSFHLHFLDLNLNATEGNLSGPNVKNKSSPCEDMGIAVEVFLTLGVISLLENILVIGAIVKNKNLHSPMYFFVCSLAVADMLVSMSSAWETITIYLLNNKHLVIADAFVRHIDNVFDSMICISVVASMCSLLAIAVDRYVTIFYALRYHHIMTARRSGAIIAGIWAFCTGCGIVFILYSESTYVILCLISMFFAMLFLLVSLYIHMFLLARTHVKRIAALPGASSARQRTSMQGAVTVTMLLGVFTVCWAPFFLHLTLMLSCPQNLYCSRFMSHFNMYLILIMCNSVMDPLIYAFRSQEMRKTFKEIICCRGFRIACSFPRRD
Calcium/calmodulin-dependent protein kinase type 1B (Homo sapiens), sequence (Q6P2M8 whole entry): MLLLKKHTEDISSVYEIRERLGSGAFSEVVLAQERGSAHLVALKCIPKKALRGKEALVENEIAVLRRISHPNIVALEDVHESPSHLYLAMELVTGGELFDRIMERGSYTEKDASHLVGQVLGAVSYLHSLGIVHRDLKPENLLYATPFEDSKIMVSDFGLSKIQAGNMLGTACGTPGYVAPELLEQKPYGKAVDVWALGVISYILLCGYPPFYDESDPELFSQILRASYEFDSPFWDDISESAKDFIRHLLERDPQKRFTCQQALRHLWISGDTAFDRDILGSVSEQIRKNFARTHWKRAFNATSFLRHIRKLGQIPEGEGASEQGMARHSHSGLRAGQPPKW
Sigma non-opioid intracellular receptor 1 (Homo sapiens), sequence (Q99720 whole entry): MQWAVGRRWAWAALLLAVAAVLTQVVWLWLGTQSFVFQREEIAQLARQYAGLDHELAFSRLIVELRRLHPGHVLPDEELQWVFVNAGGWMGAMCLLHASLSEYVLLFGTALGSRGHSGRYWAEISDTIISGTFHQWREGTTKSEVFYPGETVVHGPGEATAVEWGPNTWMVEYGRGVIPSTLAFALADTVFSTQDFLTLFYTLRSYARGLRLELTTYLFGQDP

O=c1n(Cc2cncn2-c2cccc(Cl)c2)nc(-c2ccc(Cl)cc2)n1C[C@H](O)C(F)(F)F
inhibition [1]: -3.62%
inhibition [2]: -2.83%
inhibition [3]: -8.98%
inhibition [4]: -4.95%
inhibition [5]: -3.28%
inhibition [6]: -3.39%
inhibition [7]: -5.39%
inhibition [8]: -2%
inhibition [9]: -3%
inhibition [10]: 12%

C[C@H](O)c1nc(Cn2nc(-c3ccc(Cl)cc3)n(C[C@H](O)C(F)(F)F)c2=O)nn1-c1cccc(Cl)c1 [PECAVAPTAN]
Ki ([11]; read-out: Ki): 1320 nM
Ki ([11]; read-out: pKi (converted)): 1320 nM
inhibition [12]: 1%
inhibition (Homo sapiens [13]): -6%
inhibition [14]: 15%
inhibition [15]: 9%
inhibition (Homo sapiens [16]): -4%
inhibition [17]: -6%
inhibition [18]: -2%
inhibition [19]: -6%
inhibition [20]: 13%
inhibition [21]: 4%
inhibition [22]: -4.83%
inhibition [23]: -6.92%
inhibition [24]: -2.04%
inhibition [25]: 34%
